Measured values from US5472954A, “Cyclodextrin complexation” (priority 1993, dated 1995).
Values after ≈ are worked out from the molar mass of the structure shown.

Experiments:
physchem [1] = assay: physchem
physchem [2] = assay: physchem; remark: listed apart in the source
[3] = Solubility of various drugs: effect of CMC in aqueous HPβCD solutions (Example 1); conditions: for S4 /S3: 0.25% CMC + 10% HPβCD vs 10% HPβCD
[4] = Effect of PVP on the solubilization of drugs in aqueous HPβCD solutions (Example 7); conditions: for S4 /S3: with vs without 0.25% PVP
physchem [5] = assay: physchem; remark: listed apart in the source
Procedure: An excess amount of the compound to be tested was added to each solvent and the suspensions which formed were heated in sealed containers to 120° C. The solubility of salicylic acid was determined in acidic (HCl) solution.

physchem [6] = conditions: 10% heβcd
physchem [7] = assay: physchem; remark: listed apart in the source
[8] = HPβCD with CMC / HPβCD without polymer (S6)
[9] = HPβCD with HPMC / HPβCD without polymer (S8)
[10] = HPβCD with PVP / HPβCD without polymer (S7)

Row | Compound | solubility (physchem [1]; 0.25% cmc + 10% hpbetacd) [µg/mL] | solubility (physchem [1]; aqueous 0.25% cmc) [µg/mL] | solubility (physchem [1]; aqueous 10% hpbetacd) [µg/mL] | solubility (physchem [1]; water) [µg/mL] | solubility at 72 h (physchem [2]; 0.25% pvp, 10% hpβcd) [µg/mL] | solubility at 72 h (physchem [2]; 10% hpβcd ms 0.7) [µg/mL] | solubility at 72 h (physchem [2]; aqueous 0.25% pvp) [µg/mL] | solubility at 72 h (physchem [2]; water) [µg/mL] | S4 /S3 [3] | solubility ratio (physchem [5]; [8]) | solubility ratio (physchem [5]; [9]) | further results
1 | CCOc1ccc2nc(S(N)(=O)=O)sc2c1 [Ethoxyzolamide] | 1660 | 70 (≈ 0.271 mM) | 1190 (≈ 4.61 mM) | 40 (≈ 0.155 mM) | 2720 (≈ 10.5 mM) | 1360 (≈ 5.26 mM) | 60 (≈ 0.232 mM) | 40 (≈ 0.155 mM) | 1.39 |  |  | S4 /S3 [4]: 2.00
2 | CN(C)c1ccc(N=Nc2ccccc2)cc1 [Methylyellow] |  |  |  |  |  |  |  |  |  | 1.04 | 1.09 | solubility (physchem [5]; 0.25% hpmc + 10% hpβcd): 250 µg/mL; solubility (physchem [5]; 0.25% pvp + 10% hpβcd): 240 µg/mL; solubility ratio (physchem [5]; [10]): 1.04; solubility (physchem [5]; aqueous 0.25% cmc): 0.85 µg/mL (≈ 0.00377 mM); solubility (physchem [5]; aqueous 0.25% cmc, 10% hpβcd): 240 µg/mL (≈ 1.07 mM); solubility (physchem [5]; aqueous 0.25% hpmc): 0.75 µg/mL (≈ 0.00333 mM); solubility (physchem [5]; aqueous 0.25% pvp): 0.85 µg/mL (≈ 0.00377 mM); solubility (physchem [5]; aqueous 10% hpβcd): 230 µg/mL (≈ 1.02 mM); solubility (physchem [5]; water): 0.64 µg/mL (≈ 0.00284 mM)
3 | Clc1ccc(COC(Cn2ccnc2)c2ccc(Cl)cc2Cl)c(Cl)c1 (stereo not shown) [Miconazole, miconazole] | 2500 | 60 (≈ 0.144 mM) | 1980 (≈ 4.76 mM) | 40 (≈ 0.0961 mM) | 3400 (≈ 8.17 mM) | 2360 (≈ 5.67 mM) | 200 (≈ 0.481 mM) | 40 (≈ 0.0961 mM) |  |  |  | solubility at 72 h (physchem [6]; 0.25% cmc): 3310 µg/mL (≈ 7.95 mM); solubility at 72 h (physchem [6]): 2510 µg/mL (≈ 6.03 mM); solubility (physchem [7]; 0.25% cmc in water): 60 µg/mL (≈ 0.144 mM); solubility (physchem [7]; 0.25% cmc, 10% hpbcd): 2500 µg/mL (≈ 6.01 mM); solubility (physchem [7]; 10% ethanol in water, organic solvent or mixture): 310 µg/mL (≈ 0.745 mM); solubility (physchem [7]; 10% ethanol, 10% hpbcd, organic solvent or mixture): 2220 µg/mL (≈ 5.33 mM); solubility (physchem [7]; 10% hpbcd in water): 1980 µg/mL (≈ 4.76 mM); solubility (physchem [7]; ethanol, cmc, hpbcd, organic solvent or mixture): 12600 µg/mL (≈ 30.2 mM); solubility (physchem [7]; water): 40 µg/mL (≈ 0.0961 mM)
4 | C[C@]12C=CC(=O)C=C1CC[C@@H]1[C@@H]2[C@@H](O)C[C@@]2(C)[C@H]1CC[C@]2(O)C(=O)CO [Prednisolone, prednisolone] | 15300 | 530 (≈ 1.47 mM) | 13600 (≈ 37.7 mM) | 380 (≈ 1.05 mM) |  |  |  |  | 1.13 |  |  | 
5 | CC(=O)[C@H]1CC[C@H]2[C@@H]3CCC4=CC(=O)CC[C@]4(C)[C@H]3CC[C@]12C [Progesterone, progesterone] |  |  |  |  |  |  |  |  | 1.52 |  |  | solubility ([3]; 0.25% cmc + 10% hpbetacd): 6110 µg/mL; solubility ([3]; aqueous 10% hpbetacd): 4030 µg/mL (≈ 12.8 mM); solubility at 72 h ([4]; 0.25% pvp, 10% hpβcd): 5710 µg/mL (≈ 18.2 mM); solubility at 72 h ([4]; 10% hpβcd ms 0.7): 4760 µg/mL (≈ 15.1 mM); S4 /S3 [4]: 1.20
6 | O=C(O)c1ccccc1O [Salicylic acid] |  |  |  |  |  |  |  |  |  | 1.14 | 1.06 | solubility (physchem [5]; 10% hpβcd acidic hcl solution): 3710 µg/mL (≈ 26.9 mM); solubility ratio (physchem [5]; [10]): 1.10; solubility (physchem [5]; acidic hcl, cmc, hpβcd): 4230 µg/mL (≈ 30.6 mM); solubility (physchem [5]; hpmc/hpβcd acidic hcl solution): 3920 µg/mL (≈ 28.4 mM); solubility (physchem [5]; pvp/hpβcd acidic hcl solution): 4070 µg/mL (≈ 29.5 mM)
7 | CC1(C)O[C@@H]2C[C@H]3[C@@H]4CCC5=CC(=O)C=C[C@]5(C)[C@@]4(F)[C@@H](O)C[C@]3(C)[C@]2(C(=O)CO)O1 [Triamcinolone acetonide, triamcinolone acetonide] | 2580 | 70 (≈ 0.161 mM) | 2090 (≈ 4.81 mM) | 30 (≈ 0.069 mM) |  |  |  |  |  |  |  | 
8 | COc1cc(Cc2cnc(N)nc2N)cc(OC)c1OC [Trimethoprim] |  |  |  |  | 6470 (≈ 22.3 mM) | 2830 (≈ 9.75 mM) | 1350 (≈ 4.65 mM) | 820 (≈ 2.82 mM) |  |  |  | 
9 | COc1cc(C=O)ccc1O [Vanillin] |  |  |  |  |  |  |  |  |  | 1.09 | 1.06 | solubility (physchem [5]; 0.25% hpmc + 10% hpβcd): 26500 µg/mL; solubility (physchem [5]; aqueous 0.25% cmc): 13700 µg/mL (≈ 90 mM); solubility (physchem [5]; aqueous 0.25% cmc, 10% hpβcd): 27300 µg/mL (≈ 179 mM); solubility (physchem [5]; aqueous 0.25% hpmc): 17100 µg/mL (≈ 112 mM); solubility (physchem [5]; aqueous 0.25% pvp): 11500 µg/mL (≈ 75.6 mM); solubility (physchem [5]; aqueous 10% hpβcd): 25000 µg/mL (≈ 164 mM); solubility (physchem [5]; water): 13900 µg/mL (≈ 91.4 mM)
